Calls of active or inactive are those of the source. No cut-off for these calls is given here.
Key:
[1] = molecular target: Serine/threonine-protein kinase 38-like (Homo sapiens, UniProt Q9Y2H1); assay: NDR2(h) Kinase panel
[2] = molecular target: Casein kinase I isoform alpha (Homo sapiens, UniProt P48729); assay: CK1alpha(h) Kinase panel
[3] = molecular target: TRAF2 and NCK-interacting protein kinase (Homo sapiens, UniProt Q9UKE5); assay: TNIK(h) Kinase panel
[4] = molecular target: Mitogen-activated protein kinase 11 (Homo sapiens, UniProt Q15759); assay: SAPK2b(h) Kinase panel
[5] = GPCRScan assay: inhibition of GABA/PBR; parameters: species or system Rattus norvegicus; radioligand conc. used [nm] 0.3 – 2.0, parental cells brain tissue
TGF-beta receptor type-1 = TGF-beta receptor type-1 (Homo sapiens, UniProt P36897); assay: TGFBR1(h) Kinase panel
TGF-beta receptor type-1, sequence (P36897 whole entry): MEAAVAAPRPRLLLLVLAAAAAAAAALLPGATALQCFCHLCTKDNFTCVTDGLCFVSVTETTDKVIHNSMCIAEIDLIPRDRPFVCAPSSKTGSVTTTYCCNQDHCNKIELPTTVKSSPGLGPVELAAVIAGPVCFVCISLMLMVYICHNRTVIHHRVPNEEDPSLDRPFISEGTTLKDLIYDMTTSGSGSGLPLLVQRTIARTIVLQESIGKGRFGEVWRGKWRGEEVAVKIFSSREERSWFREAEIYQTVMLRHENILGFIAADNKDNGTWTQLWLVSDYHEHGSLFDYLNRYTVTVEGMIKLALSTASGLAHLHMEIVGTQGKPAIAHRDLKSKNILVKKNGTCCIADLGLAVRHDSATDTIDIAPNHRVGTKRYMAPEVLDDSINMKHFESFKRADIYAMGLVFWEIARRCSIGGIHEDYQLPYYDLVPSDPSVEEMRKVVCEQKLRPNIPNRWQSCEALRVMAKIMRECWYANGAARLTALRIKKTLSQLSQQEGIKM

[6] = molecular target: Mitogen-activated protein kinase 14 (Homo sapiens, UniProt Q16539); assay: SAPK2a(h) Kinase panel
[7] = molecular target: T1, Casein kinase I isoform epsilon (Homo sapiens, UniProt P49674); assay: CK1epsilon(h) Kinase panel
T1 sequence (P49674 whole entry, canonical isoform): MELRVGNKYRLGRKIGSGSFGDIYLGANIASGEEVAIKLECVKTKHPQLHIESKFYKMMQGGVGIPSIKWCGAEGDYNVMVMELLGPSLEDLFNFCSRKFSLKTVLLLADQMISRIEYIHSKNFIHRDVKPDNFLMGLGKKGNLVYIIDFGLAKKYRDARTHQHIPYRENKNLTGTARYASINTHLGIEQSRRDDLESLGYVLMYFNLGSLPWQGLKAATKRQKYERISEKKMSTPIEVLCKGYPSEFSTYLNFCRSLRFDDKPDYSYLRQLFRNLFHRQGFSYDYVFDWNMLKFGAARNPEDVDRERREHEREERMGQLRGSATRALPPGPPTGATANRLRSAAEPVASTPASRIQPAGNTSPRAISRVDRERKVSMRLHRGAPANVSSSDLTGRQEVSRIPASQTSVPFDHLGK

[8] = molecular target: Serine/threonine-protein kinase DCLK2 (Homo sapiens, UniProt Q8N568); assay: DCAMKL2(h) Kinase panel
[9] = molecular target: 5'-AMP-activated protein kinase catalytic subunit alpha-2 (Homo sapiens, UniProt P54646); assay: AMPKalpha2(h) Kinase panel
[10] = molecular target: T1, Casein kinase I isoform epsilon; assay: ADP-Glo
[11] = molecular target: Macrophage colony-stimulating factor 1 receptor (Homo sapiens, UniProt P07333); assay: Fms(h) Kinase panel
[12] = molecular target: T2, Sodium-dependent dopamine transporter (Homo sapiens, UniProt Q01959); settings: Compound concentration 10.0 uM
T2 sequence (Q01959 whole entry): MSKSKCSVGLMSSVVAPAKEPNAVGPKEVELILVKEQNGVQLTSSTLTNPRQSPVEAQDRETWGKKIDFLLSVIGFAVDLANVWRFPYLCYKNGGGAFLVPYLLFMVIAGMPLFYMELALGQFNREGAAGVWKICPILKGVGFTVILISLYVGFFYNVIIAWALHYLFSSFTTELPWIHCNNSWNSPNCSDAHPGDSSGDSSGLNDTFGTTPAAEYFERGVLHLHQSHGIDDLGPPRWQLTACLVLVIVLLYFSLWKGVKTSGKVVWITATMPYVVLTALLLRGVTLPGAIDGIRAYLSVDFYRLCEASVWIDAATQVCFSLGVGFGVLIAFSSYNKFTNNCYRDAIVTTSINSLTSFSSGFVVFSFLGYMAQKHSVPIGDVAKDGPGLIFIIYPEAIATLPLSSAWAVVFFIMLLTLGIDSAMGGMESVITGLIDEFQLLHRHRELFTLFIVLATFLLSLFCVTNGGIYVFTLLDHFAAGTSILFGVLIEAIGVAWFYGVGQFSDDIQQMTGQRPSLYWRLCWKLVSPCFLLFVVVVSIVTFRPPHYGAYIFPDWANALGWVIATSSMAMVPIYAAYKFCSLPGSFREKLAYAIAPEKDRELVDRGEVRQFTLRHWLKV

[13] = molecular target: D(1A) dopamine receptor (Homo sapiens) (UniProt P21728); settings: Compound concentration 10.0 uM
[14] = molecular target: 5-hydroxytryptamine receptor 1B (Homo sapiens) (UniProt P28222); settings: Compound concentration 10.0 uM
[15] = molecular target: Muscarinic acetylcholine receptor M5 (Homo sapiens) (UniProt P08912); settings: Compound concentration 10.0 uM
Muscarinic acetylcholine receptor M5 (Homo sapiens), sequence (P08912 whole entry): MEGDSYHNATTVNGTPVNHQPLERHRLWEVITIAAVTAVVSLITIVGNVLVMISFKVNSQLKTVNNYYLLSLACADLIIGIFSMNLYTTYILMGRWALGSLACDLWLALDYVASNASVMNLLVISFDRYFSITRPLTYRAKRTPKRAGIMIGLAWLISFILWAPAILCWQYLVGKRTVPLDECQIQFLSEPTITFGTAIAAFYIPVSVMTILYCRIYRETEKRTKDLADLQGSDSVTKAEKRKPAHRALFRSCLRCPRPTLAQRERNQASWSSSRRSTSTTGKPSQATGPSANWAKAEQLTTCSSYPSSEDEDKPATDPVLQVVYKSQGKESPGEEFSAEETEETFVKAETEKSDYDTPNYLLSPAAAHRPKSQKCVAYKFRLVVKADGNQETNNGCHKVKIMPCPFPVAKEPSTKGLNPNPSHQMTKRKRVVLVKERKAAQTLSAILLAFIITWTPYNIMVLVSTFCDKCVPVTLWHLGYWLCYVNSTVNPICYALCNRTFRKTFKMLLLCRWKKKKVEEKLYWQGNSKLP

[16] = molecular target: D(2) dopamine receptor (Homo sapiens) (UniProt P14416); settings: Compound concentration 10.0 uM
[17] = molecular target: Kappa-type opioid receptor (Homo sapiens) (UniProt P41145); settings: Compound concentration 10.0 uM
[18] = molecular target: 5-hydroxytryptamine receptor 2B (Homo sapiens) (UniProt P41595); settings: Compound concentration 10.0 uM
[19] = molecular target: Sigma intracellular receptor 2 (Homo sapiens) (UniProt Q5BJF2); settings: Compound concentration 10.0 uM
[20] = molecular target: Sodium-dependent serotonin transporter (Homo sapiens) (UniProt P31645); settings: Compound concentration 10.0 uM
[21] = molecular target: D(1B) dopamine receptor (Homo sapiens) (UniProt P21918); settings: Compound concentration 10.0 uM
[22] = molecular target: Mu-type opioid receptor (Homo sapiens) (UniProt P35372); settings: Compound concentration 10.0 uM
[23] = molecular target: Beta-3 adrenergic receptor (Homo sapiens) (UniProt P13945); settings: Compound concentration 10.0 uM
[24] = molecular target: Muscarinic acetylcholine receptor M4 (Homo sapiens) (UniProt P08173); settings: Compound concentration 10.0 uM
[25] = molecular target: Delta-type opioid receptor (Homo sapiens) (UniProt P41143); settings: Compound concentration 10.0 uM
[26] = molecular target: T2, Sodium-dependent dopamine transporter; assay: GPCRScan assay: inhibition of DAT; parameters: radioligand conc. used [nm] 3.6 – 16.0, parental cells stable HEK
[27] = molecular target: Sodium-dependent noradrenaline transporter (Homo sapiens) (UniProt P23975); settings: Compound concentration 10.0 uM
[28] = molecular target: Histamine H1 receptor (Homo sapiens) (UniProt P35367); settings: Compound concentration 10.0 uM
[29] = molecular target: Alpha-1B adrenergic receptor (Homo sapiens) (UniProt P35368); settings: Compound concentration 10.0 uM
[30] = molecular target: Histamine H4 receptor (Homo sapiens) (UniProt Q9H3N8); settings: Compound concentration 10.0 uM
Histamine H4 receptor (Homo sapiens), sequence (Q9H3N8 whole entry): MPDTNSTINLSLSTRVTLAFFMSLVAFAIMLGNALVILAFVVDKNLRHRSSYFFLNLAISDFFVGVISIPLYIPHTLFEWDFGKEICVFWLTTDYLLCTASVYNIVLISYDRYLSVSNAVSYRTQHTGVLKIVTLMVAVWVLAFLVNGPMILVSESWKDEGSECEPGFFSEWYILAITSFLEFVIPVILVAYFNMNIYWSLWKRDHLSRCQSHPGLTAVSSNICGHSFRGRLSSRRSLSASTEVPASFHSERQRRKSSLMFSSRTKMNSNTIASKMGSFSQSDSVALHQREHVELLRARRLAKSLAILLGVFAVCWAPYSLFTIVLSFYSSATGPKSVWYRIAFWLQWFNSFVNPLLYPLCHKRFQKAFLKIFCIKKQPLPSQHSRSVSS

[31] = molecular target: 5-hydroxytryptamine receptor 2A (Homo sapiens) (UniProt P28223); settings: Compound concentration 10.0 uM
[32] = molecular target: 5-hydroxytryptamine receptor 2C (Homo sapiens) (UniProt P28335); settings: Compound concentration 10.0 uM
[33] = molecular target: 5-hydroxytryptamine receptor 7 (Homo sapiens) (UniProt P34969); settings: Compound concentration 10.0 uM
5-hydroxytryptamine receptor 7 (Homo sapiens), sequence (P34969 whole entry): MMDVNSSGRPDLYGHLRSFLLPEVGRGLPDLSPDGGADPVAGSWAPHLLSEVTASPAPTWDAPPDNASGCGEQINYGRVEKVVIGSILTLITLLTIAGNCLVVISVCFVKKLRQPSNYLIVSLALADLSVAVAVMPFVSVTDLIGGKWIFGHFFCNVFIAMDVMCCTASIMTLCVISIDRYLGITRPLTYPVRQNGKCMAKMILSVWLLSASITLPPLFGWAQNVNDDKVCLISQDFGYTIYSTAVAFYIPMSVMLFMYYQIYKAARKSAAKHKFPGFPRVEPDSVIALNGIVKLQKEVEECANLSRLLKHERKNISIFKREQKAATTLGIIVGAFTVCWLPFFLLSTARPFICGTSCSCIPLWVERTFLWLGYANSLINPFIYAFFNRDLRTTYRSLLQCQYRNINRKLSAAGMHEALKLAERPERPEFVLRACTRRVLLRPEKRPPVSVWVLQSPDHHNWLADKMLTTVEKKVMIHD

[34] = molecular target: Muscarinic acetylcholine receptor M1 (Homo sapiens) (UniProt P11229); settings: Compound concentration 10.0 uM
Muscarinic acetylcholine receptor M1 (Homo sapiens), sequence (P11229 whole entry): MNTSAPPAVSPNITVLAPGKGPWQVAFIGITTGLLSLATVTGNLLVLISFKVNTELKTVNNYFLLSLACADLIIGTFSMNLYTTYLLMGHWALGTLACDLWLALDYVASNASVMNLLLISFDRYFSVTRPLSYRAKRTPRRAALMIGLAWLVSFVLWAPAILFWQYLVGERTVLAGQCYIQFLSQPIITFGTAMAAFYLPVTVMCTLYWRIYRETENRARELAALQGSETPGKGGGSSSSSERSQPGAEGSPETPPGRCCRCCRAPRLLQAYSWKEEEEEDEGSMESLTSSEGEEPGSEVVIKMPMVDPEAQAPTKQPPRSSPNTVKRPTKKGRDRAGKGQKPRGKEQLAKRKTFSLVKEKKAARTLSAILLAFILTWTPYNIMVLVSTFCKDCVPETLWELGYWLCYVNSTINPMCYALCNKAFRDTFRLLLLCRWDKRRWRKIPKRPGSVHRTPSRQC

[35] = molecular target: 5-hydroxytryptamine receptor 1E (Homo sapiens) (UniProt P28566); settings: Compound concentration 10.0 uM
[36] = molecular target: 5-hydroxytryptamine receptor 1A (Homo sapiens, UniProt P08908); assay: GPCRScan assay: inhibition of 5-HT1A; parameters: radioligand conc. used [nm] 0.5 – 1.0, parental cells stable CHO
[37] = molecular target: Casein kinase I isoform delta (Homo sapiens, UniProt P48730); assay: BRET whole cell binding assay
[38] = molecular target: Alpha-1D adrenergic receptor (Homo sapiens) (UniProt P25100); settings: Compound concentration 10.0 uM
Alpha-1D adrenergic receptor (Homo sapiens), sequence (P25100 whole entry): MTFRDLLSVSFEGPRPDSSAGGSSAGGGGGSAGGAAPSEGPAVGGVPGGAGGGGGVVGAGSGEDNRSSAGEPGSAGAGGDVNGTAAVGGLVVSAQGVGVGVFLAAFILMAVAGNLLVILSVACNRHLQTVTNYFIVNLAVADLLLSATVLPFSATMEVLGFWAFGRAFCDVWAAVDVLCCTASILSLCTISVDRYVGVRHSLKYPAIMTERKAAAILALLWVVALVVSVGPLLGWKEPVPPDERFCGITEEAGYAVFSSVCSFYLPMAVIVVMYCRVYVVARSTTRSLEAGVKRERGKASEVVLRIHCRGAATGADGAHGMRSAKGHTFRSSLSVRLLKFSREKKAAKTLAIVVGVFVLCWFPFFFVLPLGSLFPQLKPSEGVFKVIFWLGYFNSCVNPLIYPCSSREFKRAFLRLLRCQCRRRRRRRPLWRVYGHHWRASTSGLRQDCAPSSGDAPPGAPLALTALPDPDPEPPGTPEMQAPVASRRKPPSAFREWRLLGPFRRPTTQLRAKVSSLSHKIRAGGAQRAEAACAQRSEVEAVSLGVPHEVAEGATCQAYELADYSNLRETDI

[39] = molecular target: Muscarinic acetylcholine receptor M3 (Homo sapiens) (UniProt P20309); settings: Compound concentration 10.0 uM
D(3) dopamine receptor [40] = molecular target: T3, D(3) dopamine receptor (Homo sapiens, UniProt P35462); assay: GPCRScan assay: inhibition of D3; parameters: radioligand conc. used [nm] 0.5 – 1.8, parental cells HEKT
T3 sequence (P35462 whole entry): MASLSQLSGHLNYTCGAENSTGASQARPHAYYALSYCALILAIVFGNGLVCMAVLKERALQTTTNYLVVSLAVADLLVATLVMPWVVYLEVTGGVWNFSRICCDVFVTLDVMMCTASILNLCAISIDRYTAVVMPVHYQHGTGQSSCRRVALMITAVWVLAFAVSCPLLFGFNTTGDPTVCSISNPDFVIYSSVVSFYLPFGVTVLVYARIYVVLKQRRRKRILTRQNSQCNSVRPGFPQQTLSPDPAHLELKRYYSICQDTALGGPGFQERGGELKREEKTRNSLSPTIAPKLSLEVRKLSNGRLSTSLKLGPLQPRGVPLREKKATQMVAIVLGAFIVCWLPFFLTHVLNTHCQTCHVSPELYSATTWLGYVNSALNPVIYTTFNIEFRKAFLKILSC

[41] = molecular target: 5-hydroxytryptamine receptor 3A (Homo sapiens) (UniProt P46098); settings: Compound concentration 10.0 uM
[42] = molecular target: D(4) dopamine receptor (Homo sapiens) (UniProt P21917); settings: Compound concentration 10.0 uM
[43] = molecular target: Beta-1 adrenergic receptor (Homo sapiens) (UniProt P08588); settings: Compound concentration 10.0 uM
[44] = molecular target: Alpha-2A adrenergic receptor (Homo sapiens) (UniProt P08913); settings: Compound concentration 10.0 uM
[45] = molecular target: Sigma non-opioid intracellular receptor 1 (Homo sapiens) (UniProt Q99720); settings: Compound concentration 10.0 uM
Sigma non-opioid intracellular receptor 1 (Homo sapiens), sequence (Q99720 whole entry): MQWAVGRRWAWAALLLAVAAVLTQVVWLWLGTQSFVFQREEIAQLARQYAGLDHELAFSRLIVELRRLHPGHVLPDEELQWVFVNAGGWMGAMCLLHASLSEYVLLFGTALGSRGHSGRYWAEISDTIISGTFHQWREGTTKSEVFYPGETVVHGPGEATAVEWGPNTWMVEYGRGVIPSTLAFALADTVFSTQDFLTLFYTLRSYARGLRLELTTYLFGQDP

[46] = molecular target: Alpha-2C adrenergic receptor (Homo sapiens) (UniProt P18825); settings: Compound concentration 10.0 uM
[47] = molecular target: Muscarinic acetylcholine receptor M2 (Homo sapiens) (UniProt P08172); settings: Compound concentration 10.0 uM
[48] = molecular target: Histamine H3 receptor (Homo sapiens) (UniProt Q9Y5N1); settings: Compound concentration 10.0 uM
D(3) dopamine receptor [49] = molecular target: T3, D(3) dopamine receptor; settings: Compound concentration 10.0 uM
[50] = molecular target: 5-hydroxytryptamine receptor 1D (Homo sapiens) (UniProt P28221); settings: Compound concentration 10.0 uM
[51] = molecular target: Alpha-2B adrenergic receptor (Homo sapiens) (UniProt P18089); settings: Compound concentration 10.0 uM
[52] = molecular target: 5-hydroxytryptamine receptor 5A (Homo sapiens) (UniProt P47898); settings: Compound concentration 10.0 uM
[53] = molecular target: Histamine H2 receptor (Homo sapiens) (UniProt P25021); settings: Compound concentration 10.0 uM
Histamine H2 receptor (Homo sapiens), sequence (P25021 whole entry): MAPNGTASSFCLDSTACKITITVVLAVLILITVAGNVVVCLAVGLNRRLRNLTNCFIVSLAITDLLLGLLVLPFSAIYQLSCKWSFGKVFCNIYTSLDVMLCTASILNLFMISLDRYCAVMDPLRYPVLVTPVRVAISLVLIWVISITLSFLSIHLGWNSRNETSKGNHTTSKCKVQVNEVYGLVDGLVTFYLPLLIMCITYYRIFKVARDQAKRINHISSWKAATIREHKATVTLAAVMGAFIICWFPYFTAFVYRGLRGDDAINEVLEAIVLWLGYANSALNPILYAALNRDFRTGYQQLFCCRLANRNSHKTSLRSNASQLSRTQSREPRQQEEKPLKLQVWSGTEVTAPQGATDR

[54] = molecular target: GABA-A receptor; anion channel (Rattus norvegicus) (UniProt O09028+P15431+P18506+P18508+P19969+P20236+P23574+P23576+P28471+P28473+P30191+P62813+P63079+P63138+Q91ZM7+Q9ES14); settings: Compound concentration 10.0 uM

Compound: [2H]C([2H])([2H])C1(C([2H])([2H])[2H])Cn2nc(-c3ccc(F)cn3)c(-c3ccnc4[nH]ncc34)c2CO1
- IC50 [1]: > 10 µM
- IC50 [2]: 0.419 µM
- IC50 [3]: 1.7 µM
- IC50 [4]: > 10 µM
- Ki [5]: 4.53 µM
- pKi [5]: 5.34
- IC50 (TGF-beta receptor type-1): > 10 µM
- IC50 [6]: > 10 µM
- IC50 [7]: 0.137 µM
- IC50 [8]: > 10 µM
- IC50 [9]: > 10 µM
- IC50 [10]: 0.137 µM (active)
- IC50 [11]: > 10 µM

Compound: Cn1cc2c(-c3c(-c4ccc(F)cn4)nn4c3COC(C)(C)C4)ccnc2n1
- inhibition [12]: 72.5%
- inhibition [13]: 5.63%
- inhibition [14]: 3.69%
- inhibition [15]: 12.5%
- inhibition [16]: 16.9%
- inhibition [17]: 5.15%
- inhibition [18]: 9.41%
- inhibition [19]: -2.71%
- inhibition [20]: -2.06%
- inhibition [21]: 3.57%
- inhibition [22]: -0.34%
- inhibition [23]: 12.3%
- inhibition [24]: 0.72%
- inhibition [25]: -4.05%
- Ki ([26]; read-out: Ki): 7.22 µM
- Ki ([26]; read-out: pKi (converted)): 7.24 µM
- inhibition [27]: 3.24%
- inhibition [28]: 12.5%
- inhibition [29]: 35.2%
- inhibition [30]: 31.6%
- inhibition [31]: 0.96%
- inhibition [32]: 2.17%
- inhibition [33]: 2.11%
- inhibition [34]: 14.2%
- inhibition [35]: 11%
- Ki [36]: 7.66 µM
- IC50 [37]: > 10 µM (not active)
- inhibition [38]: 12.7%
- inhibition [39]: 0.71%
- Ki (D(3) dopamine receptor [40]): 8.63 µM
- inhibition [41]: 1.67%
- inhibition [42]: 48.1%
- inhibition [43]: 14.9%
- inhibition [44]: 19.6%
- inhibition [45]: 13%
- inhibition [46]: -5.28%
- inhibition [47]: -5.08%
- inhibition [48]: -2.3%
- inhibition (D(3) dopamine receptor [49]): 71%
- inhibition [50]: 11.3%
- inhibition [51]: 9.43%
- inhibition [52]: 5.31%
- inhibition [53]: -7.88%
- inhibition [54]: 18.2%

Reference: ChEMBL document CHEMBL5058645, “Data for DCP probe JNJ-6204” (2022)
